Assay results as given in the supplement of paper PMC11208160.

test: recombinant barcode read abundance after kanamycin selection (control-corrected) (log10(CPM+1)); higher = more efficient recombination; sequences stand for … in AGTGCAGAGAAAATCGGCCAGTTTTCTCTGCCTGCAGTCCGCATGCCGT…AGATTTATGCAGCGGACTGCCTTTCTCCCAAAGTGATAAACCGGACAGTATCATGGACCGGTTTTCCCGGTAATCCGTATTTGCAAGGTTGGTTTCACT; site = the 11-nt target
In short: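 Values are log10(CPM+1) from a pooled E. coli screen of targets paired with IS621 bridge RNA target-binding loops. Recombination efficiency here means counts per million of recombinant-junction barcodes, averaged and control-corrected. Plates were chloramphenicol/ampicillin LB agar for the control and chloramphenicol/ampicillin/kanamycin with 0.1 mM IPTG, two replicates each.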
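Also: IS621 recombinase and bridge RNA in Escherichia coli cells.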

Sequence | recombinant barcode read abundance (log10)
CACATCACTTGGGTTCTAACCTGTTGCCT (site CACACCACTAG) | 0.225
CACATCACTTGGGTTCTAACCTGTTGCCT (site CACAGCACTAG) | 0.0683
CACATCACTTGGGTTCTAACCTGTTGCCT (site CACATCACTAG) | 0.704
CACATGCCTTGGGTTCTAACCTGTTGCTG (site CACATGCCTCA) | 2
CACATGCCTTGGGTTCTAACCTGTTGCTG (site TTGTACACTGG) | 0.0315
CACCAGACTTGGGTTCTAACCTGTTGCCA (site ACAATCTCTGA) | 0.0296
CACCAGACTTGGGTTCTAACCTGTTGCCA (site CACCAGACTTG) | 0.539
CACCCACCTTGGGTTCTAACCTGTTGCCT (site AACCCACCTAG) | 0.0311
CACCCACCTTGGGTTCTAACCTGTTGCCT (site CACCCACCTAG) | 1.66
CACCCACCTTGGGTTCTAACCTGTTGCCT (site GACCCACCTAG) | 0.0974
CACCCACCTTGGGTTCTAACCTGTTGCCT (site TACCCACCTAG) | 0.0304
CACCCTTCTTGGGTTCTAACCTGTTGCTC (site CACCCTTCTGA) | 1.94
CACCCTTCTTGGGTTCTAACCTGTTGCTC (site TCTGGCCCTAG) | 0.0488
CACCGAGCTTGGGTTCTAACCTGTTGCTA (site CACCGAGCTTA) | 0.528
CACCGAGCTTGGGTTCTAACCTGTTGCTA (site TTGACGACTCG) | 0.177
CACCTTCCTTGGGTTCTAACCTGTTGCAT (site CACATACCTAT) | 0.196
CACCTTCCTTGGGTTCTAACCTGTTGCAT (site CACCTTCCTAT) | 1.77
CACGACCCTTGGGTTCTAACCTGTTGCCT (site CAAGACCCTAG) | 0.0526
CACGACCCTTGGGTTCTAACCTGTTGCCT (site CACGACCCTAG) | 2.05
CACGACCCTTGGGTTCTAACCTGTTGCCT (site CAGGACCCTAG) | 0.0694

Sequence | recombinant barcode read abundance (log10)
CACGACCCTTGGGTTCTAACCTGTTGCCT (site CATGACCCTAG) | 0.16
CACGAGGCTTGGGTTCTAACCTGTTGCCT (site CACGAGACTAG) | 0.707
CACGAGGCTTGGGTTCTAACCTGTTGCCT (site CACGAGCCTAG) | 0.0831
CACGAGGCTTGGGTTCTAACCTGTTGCCT (site CACGAGGCTAG) | 0.527
CACGAGGCTTGGGTTCTAACCTGTTGCCT (site CACGAGTCTAG) | 0.322
CACGATGCTTGGGTTCTAACCTGTTGCCT (site CAAGATGCTAG) | 0.437
CACGATGCTTGGGTTCTAACCTGTTGCCT (site CACGATGCTAG) | 0.789
CACGATGCTTGGGTTCTAACCTGTTGCCT (site CAGGATGCTAG) | 0.226
CACGATGCTTGGGTTCTAACCTGTTGCCT (site CATGATGCTAG) | 0.351
CACGCTTCTTGGGTTCTAACCTGTTGCTA (site CACGCGTCTCA) | 0.0477
CACGCTTCTTGGGTTCTAACCTGTTGCTA (site CACGCTTCTTA) | 1.01
CACGGTCCTTGGGTTCTAACCTGTTGCCT (site CACGGTCCTAG) | 2.13
CACGGTCCTTGGGTTCTAACCTGTTGCCT (site CTCGGTGCTAG) | 0.0233
CACTCTCCTTGGGTTCTAACCTGTTGCAT (site CACTCTCCTAG) | 0.11
CACTCTCCTTGGGTTCTAACCTGTTGCAT (site CACTCTCCTAT) | 0.728
CACTGGTCTTGGGTTCTAACCTGTTGCCT (site CACTGATCTAG) | 0.532
CACTGGTCTTGGGTTCTAACCTGTTGCCT (site CACTGCTCTAG) | 0.0756
CACTGGTCTTGGGTTCTAACCTGTTGCCT (site CACTGGTCTAG) | 1.12
CACTGGTCTTGGGTTCTAACCTGTTGCCT (site CACTGTTCTAG) | 0.0874
CACTTATCTTGGGTTCTAACCTGTTGCCT (site CACTTAACTAG) | 0.149

Sequence | recombinant barcode read abundance (log10)
CACTTATCTTGGGTTCTAACCTGTTGCCT (site CACTTACCTAG) | 0.308
CACTTATCTTGGGTTCTAACCTGTTGCCT (site CACTTAGCTAG) | 0.0751
CACTTATCTTGGGTTCTAACCTGTTGCCT (site CACTTATCTAG) | 0.549
CACTTGCCTTGGGTTCTAACCTGTTGCCT (site CACTTGACTAG) | 0.0347
CACTTGCCTTGGGTTCTAACCTGTTGCCT (site CACTTGCCTAG) | 0.754
CACTTGCCTTGGGTTCTAACCTGTTGCCT (site CACTTGGCTAG) | 0.0743
CACTTGCCTTGGGTTCTAACCTGTTGCCT (site CACTTGTCTAG) | 0.614
CACTTGGCTTGGGTTCTAACCTGTTGCAG (site CACTGGGCTCT) | 0.468
CACTTGGCTTGGGTTCTAACCTGTTGCAG (site CACTTGGCTCT) | 0.706
CAGAAGCCTTGGGTTCTAACCTGTTGCCT (site AAGAAGCCTAG) | 0.661
CAGAAGCCTTGGGTTCTAACCTGTTGCCT (site CAGAAGCCTAG) | 1.65
CAGAAGCCTTGGGTTCTAACCTGTTGCCT (site GAGAAGCCTAG) | 0.193
CAGAAGCCTTGGGTTCTAACCTGTTGCCT (site TAGAAGCCTAG) | 0.0644
CAGACTTCTTGGGTTCTAACCTGTTGCCT (site CAGACTTCTAG) | 0.473
CAGACTTCTTGGGTTCTAACCTGTTGCCT (site CCGACTTCTAG) | 0.375
CAGACTTCTTGGGTTCTAACCTGTTGCCT (site CGGACTTCTAG) | 0.039
CAGACTTCTTGGGTTCTAACCTGTTGCCT (site CTGACTTCTAG) | 0.0642
CAGAGCCCTTGGGTTCTAACCTGTTGCTG (site CAGAGCCCTCA) | 1.84
CAGAGCCCTTGGGTTCTAACCTGTTGCTG (site CTGAGCCCTCA) | 0.0157
